The source of these data is patent publication US20100234393A1, “USE OF A VASOPEPTIDASE INHIBITOR FOR THE TREATMENT OF PULMONARY ARTERIAL HYPERTENSION” (priority 2006, published 2010).

Experiment [1] relates to PAH model in rats receiving an injection of monocrotaline. Kind of experiment: Long-term efficacy of fasidotril in the monocrotaline PAH model in rats. Format: in vivo, rats of the Wistar type. The protocol:
The long-term efficacy of fasidotril was studied on a recognised PAH model in rats receiving an injection of the toxic alkaloid, monocrotaline (Rosenberg and Rabinovitch, Am. J. Physiol., 1988, 255, 484). After a single injection of the toxin (60 mg/kg, s.c.), the pulmonary arterial endothelium is wounded and the animals develop pulmonary arterial smooth muscle hypertrophy with severe pulmonary hypertension and right ventricular hypertrophy.
A group of 50 rats of the Wistar type weighing approximately 300 g was used, of which 10 were used as controls while 40 received a dose of 60 mg/kg of monocrotaline s.c. The latter were divided into two groups of 20 animals: the first group was fed with a standard laboratory feed while the second group was fed with a feed containing fasidotril at a concentration such that the rats received a dose of approximately 200 mg/kg/day.

Experiment [2] has as its system PAH model (monocrotaline, Wistar rats). The conditions noted are these: literature: Schermuly et al., Amer. J. Resp. Crit. Care Med. 2004, 169, 39; cited from earlier work.

The mortality is the share of the test organisms that died. `CC(=O)SC[C@@H](Cc1ccc2c(c1)OCO2)C(=O)N[C@@H](C)C(=O)OCc1ccccc1` [fasidotril, benzyl (S,S)-2-(2-acetylsulphanylmethyl-3-benzo[1,3]dioxol-5-ylpropionylamino)propionate]: the “slowing down of the rate of development of the disease” value in experiment [1] (PAH model, treatment with fasidotril, conclusion from mortality and heart weight data) is reported as “approximately a half”. In experiment [1] (after one month, monocrotaline 60 mg/kg s.c., fasidotril in feed approximately 200 mg/kg/day, "monocrotaline only" group 45%), this compound showed a mortality of 20%. Besides, the “increase in the weight of the right ventricle (right heart hypertrophy)” value in experiment [1] (after one month, monocrotaline 60 mg/kg s.c., fasidotril in feed approximately 200 mg/kg/day, monocrotaline only +74%) was “+50%”. Besides, the “increase in the weight of the right auricle (right heart hypertrophy)” value in experiment [1] (after one month, monocrotaline 60 mg/kg s.c., fasidotril in feed approximately 200 mg/kg/day, monocrotaline only +140%) is “+57%”.
With `CCCc1nn(C)c2c(=O)[nH]c(-c3cc(S(=O)(=O)N4CCN(C)CC4)ccc3OCC)nc12` [sildenafil], in experiment [2], the “activity in the PAH model” value is “active”.
